One experiment concerns the target T1, hFPR (Homo sapiens, UniProt P21462).
T1 sequence (P21462 1-350): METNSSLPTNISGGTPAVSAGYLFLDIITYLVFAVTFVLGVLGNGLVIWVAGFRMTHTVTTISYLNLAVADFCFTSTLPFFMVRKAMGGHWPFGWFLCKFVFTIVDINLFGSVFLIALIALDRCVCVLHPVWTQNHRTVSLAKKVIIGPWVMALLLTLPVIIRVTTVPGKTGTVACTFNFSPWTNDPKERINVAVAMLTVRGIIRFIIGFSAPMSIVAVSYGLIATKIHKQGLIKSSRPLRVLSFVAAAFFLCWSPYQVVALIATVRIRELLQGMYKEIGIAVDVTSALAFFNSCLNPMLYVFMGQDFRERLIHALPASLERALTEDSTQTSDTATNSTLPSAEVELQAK
Description: radionuclide binding competition assay using fMLF peptide as internal standard. From the text:
Provided herein is the use of formyl peptide receptor antagonists in the therapy of diseases or disorders involving inappropriate, exaggerated, or prolonged neutrophil response (i.e. recruitment and/or activation). […] Thus the cyclosporins of this invention include dihydroCsH, as well as compounds of Formula I that maintain FPR inhibitory activity.

The test system of another experiment is Sprague-Dawley Rats. The experiment in a line: Multiple Oral Gavage Toxicity Study of Cyclosporin H in Sprague-Dawley Rats with Toxicokinetics, hematology. Format: in vivo. Particulars: animals to which CsH had been administered (see Table 1).
The test system of experiment [1] is calcineurin mediated signaling. The settings on record: cited from earlier work.

Data on 2 compounds can be found in patent US20120231994A1, “ANTAGONISM OF HUMAN FORMYL PEPTIDE RECEPTOR FOR TREATMENT OF DISEASE” (NIKAN PHARMACEUTICALS, LLC, priority 2009, published 2012).

The IC50 is the midpoint of a concentration-inhibition curve. The low end stands for inhibition by little substance, the high end for a need for much substance. `CCCC[C@@H](C)[C@@H](O)[C@H]1C(=O)N[C@@H](CC)C(=O)N(C)CC(=O)N(C)[C@@H](CC(C)C)C(=O)N[C@@H](C(C)C)C(=O)N(C)[C@@H](CC(C)C)C(=O)N[C@@H](C)C(=O)N[C@H](C)C(=O)N(C)[C@@H](CC(C)C)C(=O)N(C)[C@@H](CC(C)C)C(=O)N(C)[C@H](C(C)C)C(=O)N1C` [dihydroCsH, Dihydrocyclosporin H]: the IC50 on hFPR was 7.99 nM.

Regarding `C/C=C/C[C@@H](C)[C@@H](O)[C@H]1C(=O)N[C@@H](CC)C(=O)N(C)CC(=O)N(C)[C@@H](CC(C)C)C(=O)N[C@@H](C(C)C)C(=O)N(C)[C@@H](CC(C)C)C(=O)N[C@@H](C)C(=O)N[C@H](C)C(=O)N(C)[C@@H](CC(C)C)C(=O)N(C)[C@@H](CC(C)C)C(=O)N(C)[C@H](C(C)C)C(=O)N1C` [CsH, Cyclosporine H], in the experiment on Sprague-Dawley Rats, the circulating eosinophils result was “significant decrease”. Moreover, the “effect on calcineurin mediated signaling” value in experiment [1] was “no effect”.
